| melting point | SMILES |
| --- | --- |
| 78 °C | Cc1ccc(-c2cnco2)cc1 |
| 120 to 126 °C | N#Cc1cc(Cl)cc(Cl)c1N |
| 210 °C | CC(=O)c1ccc(C#N)c(S)n1 |
| 283 °C | COC(=O)c1ccccc1NC(=S)NNC(=O)C(=O)c1c[nH]c2ccccc12 |
| 257 to 260 °C | C#CC1(O)CCC2C3CC=C4C=C(C(C)(C)C(=O)O)CCC4(C)C3CCC21C (stereo not drawn) |
| 138 to 139 °C | NNC(=O)c1cccc(F)c1 |
| 77.5 °C | CCN(CC)c1ccc([N+](=O)[O-])cc1 |
| 233 to 235 °C | O=C(O)c1csnn1 |
| 62 °C | CCOC(=O)C(CCC#N)(CCC#N)C(=O)OCC |
| 7 °C | Cc1ccc(N)c(Cl)c1 |
| 214 °C | O=C(O)C=Cc1ccc(O)cc1 |
| 190 °C | Cc1ccc2cc(N)ccc2n1 |
| 181 to 184 °C | CC(=O)c1cc2cc3c4c(c2oc1=O)CCCN4CCC3 |
| 99 to 100 °C | O=C(Nc1ccccc1)C1CCCC/C1=C\Cc1ccccc1 (stereo not drawn) |
| 106 to 108 °C | CCOC(=O)CC1Sc2ccccc2NC1=S (stereo not drawn) |
| 58 °C | Cc1c(Cl)ncnc1Cl |
| 190 °C | CS(=O)(=O)c1nn(-c2ccccc2)c(N)c1C#N |
| -46 °C | CCOC(=O)CC(O)(CC(=O)OCC)C(=O)OCC |
| 84 to 86 °C | COc1cc(N=C=S)c(OC)cc1Cl |
| 48 °C | CCN(CC)C(=O)N1CCN(C)CC1 |
| 60.5 to 61.5 °C | O=C(Oc1c(F)c(F)c(F)c(F)c1F)c1cccc(Oc2ccccn2)c1 |
| 267 °C | C[Si](C)(C)[Si]([Si](C)(C)C)([Si](C)(C)C)[Si](C)(C)C |
| -35.4 °C | C/C=C(C)/C=C/C=C(C)C |

| melting point | SMILES |
| --- | --- |
| 98 °C | Fc1ccc2c(c1)Cc1ccccc1-2 |
| 68 °C | CC(O)c1cccc(N)c1 (stereo not drawn) |
| 4 °C | Cc1ccc(C(=O)C(F)(F)C(F)(F)F)cc1 |
| 19 to 22 °C | O=c1occo1 |
| 76 °C | Cc1cc(Br)cc(C)c1O |
| 199 to 202 °C | NNC(=O)c1cncc(Br)c1 |
| 50.5 °C | NN(c1ccccc1)c1ccccc1 |
| 162 to 164 °C | Fc1cccc(-n2cc[nH]c2=S)c1 |
| 64 to 65 °C | O=C1CCSc2ccc(Cl)cc21 |
| 144 to 145 °C | COc1cc([N+](=O)[O-])c(OC)cc1Cl |
| 217 °C | COc1ccc(-c2cc(N3CCCC3)cc3c2c(=O)n(-c2ccccc2)n3C)cc1 |
| 42 °C | Cc1onc(-c2ccccc2Cl)c1C(=O)Cl |
| 195 °C | CC1=C(C(=O)OCc2ccccc2)C(c2ccco2)NC(=O)N1 (stereo not drawn) |
| 132 °C | CC(=O)N1CC(O)CC1C(=O)O (stereo not drawn) |
| 98 to 99 °C | CCOC(=O)c1[nH]nc(C)c1C(=O)OCC |
| 259 °C | N[C@@H](Cc1ccc(OCc2ccccc2)cc1)C(=O)O |
| -55 °C | FC(F)(F)C1(F)C(F)(F)C(F)(F)C(F)(F)C(F)(C(F)(F)F)C1(F)F (stereo not drawn) |
| 53 to 57 °C | CCCCCCCCCCCCCCCC(=O)Oc1c[nH]c2ccc(Br)c(Cl)c12 |
| 168 to 170 °C | O=C(O)c1ccc2c(c1)CCCN2 |
| 56.5 °C | COC(=O)C1(S(=O)(=O)c2ccccc2)CCCC1 |
| 71 °C | O=[N+]([O-])c1ncccc1O |
| 37 °C | O=C(O)C1(C(F)(F)F)CCCC1 |
| 82 °C | COc1ccc(OC)c(C#N)c1 |

| melting point | SMILES |
| --- | --- |
| 240 to 242 °C | CCCC(NC(=O)C(C)N)C(=O)O (mixture of isomers) |
| 0.6 °C | CC(CC1CCCCC1)CC1CCCCC1 |
| 110 °C | Oc1ccc(F)c2cccnc12 |
| 3 to 4 °C | COC=CC(=O)OC |
| 174 °C | c1ccc(-c2cc(N3CCCC3)cc(N3CCCC3)c2)cc1 |
| 61 °C | CC1=CC(c2ccccc2)c2ccccc21 (stereo not drawn) |
| 102 to 103 °C | CCOC(=O)C(C#N)=NNc1ccccc1[N+](=O)[O-] |
| 179 °C | Cc1ccc([N+](=O)[O-])cc1C(=O)O |
| 114 °C | Oc1c(Br)cc(Br)c(Br)c1Br |
| 37 °C | OCCCc1ccncc1 |
| 76 °C | OCc1cccc(C(F)(F)F)c1Cl |
| 178 to 179 °C | COc1cc(NC(=S)NN)cc(OC)c1OC |
| -56.4 °C | C1=CCCC=CCC1 |
| 30 °C | CCCCCCCCCCCCCCCCCC[Si](C)(C)Cl |
| 186 °C | COC(=O)C1=C(C)NC(C)=C(C(=O)OC)C1c1ccco1 |
| 74 to 76 °C | CCCCCCCCCCCCCCCCCCCCCCCO |
| 84 to 86 °C | N#Cc1ccccc1Oc1ccc(Cl)cc1Cl |
| 169 °C | Nc1nc(-c2ccc(Cl)cc2)cs1 |
| 155 °C | Cc1ccc2cc3c(cc2n1)CCC(C)N3C(=O)c1ccccc1 (stereo not drawn) |
| 103 °C | Cc1ccc(O)c(C(O)c2ccccc2)c1 (stereo not drawn) |
| 33.5 °C | O=C1CCCCCCCCCCCCCCCO1 |
| 40 to 44 °C | Cc1cc(Br)cnc1Cl |
| 54 to 57 °C | COC(=O)C=Cc1ccc(OC)c(OC2CCCC2)c1 |

| melting point | SMILES |
| --- | --- |
| 105 °C | CC(C)(C)c1ncc(C(=O)Nc2cccc(Br)c2)nc1Cl |
| 130 to 133 °C | O=C1N[C@@H](c2ccccc2)CO1 |
| 84 °C | N#Cc1cc(F)ccc1Cl |
| 117 to 118 °C | Cc1oc(-c2ccccc2)nc1CO |
| -135 °C | CCC=C(C)C |
| 224 to 225 °C | O=C(O)CNCCNCC(=O)O |
| 152 to 153 °C | CC(=O)OC1CCC2(C)C(CCC3C4CC=C(C#Cc5ccccc5)C4(C)CCC32)C1 (stereo not drawn) |
| 173 to 176 °C | COc1cc(C=CC(=O)O)cc(OC)c1 |
| 80 °C | CCOC(=O)C(=Cc1cc(C=C(C(=O)OCC)C(=O)OCC)cc([N+](=O)[O-])c1)C(=O)OCC |
| 159 °C | Nc1ccc([N+](=O)[O-])c(Cl)c1 |
| 105 to 107 °C | Cc1ccc(C(N)=NO)cc1F |
| 18 °C | ClC1CCC(Cl)CC1 (stereo not drawn) |
| 212 to 214 °C | O=C(O)CN(CCO)CCN(CC(=O)O)CC(=O)O |
| 109 to 112 °C | O=Cc1ccccc1OCc1c(Cl)cccc1Cl |
| 146 °C | COC(=O)C1(S(=O)(=O)c2ccc(C)cc2)CCCCC1 |
| 185 °C | CCC(C)OC(=O)C1=C(C)NC(=O)NC1c1ccco1 (stereo not drawn) |
| 119 °C | CC1(C)C2CCC1(C)C(C(=O)O)C2CC(O)c1ccccc1 (stereo not drawn) |
| 160 °C | Nc1ccc2[nH]nnc2c1 |
| 299 °C | Cc1cc(C(=O)O)cc(C(=O)O)c1 |
| 191 to 193 °C | CCOC(=O)c1c[nH]c(S)n1 |
| 140 °C | Oc1ccc(O)c(O)c1 |
| 74 °C | CC(=O)c1c2ccccc2cc2ccccc12 |
| 217 °C | COC(=O)C1=C(C)NC(C)=C(C(=O)On2nnc3ccccc32)[C@H]1c1ccc([N+](=O)[O-])cc1 |

| melting point | SMILES |
| --- | --- |
| 220 °C | COC(=O)c1cc2cc3cc(C(=O)OC)c(C(=O)OC)cc3cc2cc1C(=O)OC |
| 7 to 9 °C | O=C(c1ccccc1)C1CC1 |
| 230 to 232 °C | COc1ccc(NC(=S)NN=Cc2c(-c3ccc(Cl)cc3)[nH]c3ccccc23)cc1 |
| 155 °C | NS(=O)(=O)c1cccc(/C(=N\O)c2ccccc2)c1 |
| 157 °C | [O-][P+](c1ccccc1)(c1ccccc1)C1C2=C(CCCC2)OC2=C1CCCC2 |
| 149 to 152 °C | CC(=O)OC1CCC2(C)C(=CCC3C2CCC2(C)C(C(C)=O)CCC32)C1 (stereo not drawn) |
| 204 °C | O=C(NCCc1ccccc1)c1cc([N+](=O)[O-])cc([N+](=O)[O-])c1 |
| -50 °C | CC(=O)OC1CCC(C(C)(C)C)CC1 (stereo not drawn) |
| 135 °C | CCOC(=O)Nc1ccc2cc3ccc(N)c(CO)c3nc2c1 |
| 106 to 108 °C | O=S(=O)(Cl)c1ccc(-c2ccccc2)nc1 |
| 109 °C | COc1ccc(C(=O)c2ccc(Cl)cc2)cc1OC |
| 180 °C | O=C1OC(O)c2cc(Cl)c(Cl)cc21 (stereo not drawn) |
| 55 °C | c1cc(CCCc2ccncc2)ccn1 |
| 171 °C | CC(=O)Nc1cccc(NCC(=O)c2ccccc2)c1 |
| 54 °C | Oc1cc(F)c(F)c(F)c1 |
| 167 °C | CN(N=O)C1=CC(=O)C2(C)CCC1C2(C)C (stereo not drawn) |
| 138 to 140 °C | CC(C)(C)OC(=O)Nc1ccsc1 |
| 37 °C | O=Cc1c(F)cccc1Cl |
| 52 °C | FC(F)(F)c1ccccc1-n1ccnc1 |
| 214 to 216 °C | CSc1nsc(SC)c1C(N)=O |
| 256 °C | Cc1cccc(C)c1NC(=O)c1cc(S(N)(=O)=O)c(Cl)cc1O |
| 132 °C | CC(=O)Oc1ccccc1C(=O)OCC(=O)N(C)CC(N)=O |
| 179 to 182 °C | O=c1cc(C(F)(F)F)c2ccc(O)cc2o1 |

| SMILES | melting point |
| --- | --- |
| CC(C)c1ccc(C=C[N+](=O)[O-])cc1 | 35 to 38 °C |
| CN(C)c1ccc2c(C(F)(F)F)cc(=O)oc2c1 | 147 to 149 °C |
| CCOC(=O)c1ccccc1C(=O)OCC | -40.5 °C |
| CN(C)c1ccc(N=Nc2ccccc2)cc1 | 117 °C |
| N#CC1(N=NC2(C#N)CCCCC2)CCCCC1 | 116 °C |
| CCOP(=O)(Cc1ccc(N)cc1)OCC | 93 °C |
| BrCc1cc(CBr)c(CBr)cc1CBr | 156 to 162 °C |
| O=[N+]([O-])c1cc(-c2ccccc2)ccc1O | 67 °C |
| CN(CCO)CCO | -21 °C |
| CCC(=O)c1cccc(Br)c1 | 40 °C |
| CNCc1nn(C)c2ccccc12 | 37 to 40 °C |
| COc1ccc(C2=CCC3(C)C(CCC4C5CCC(O)C5(C)CCC43)C2)cc1 (stereo not drawn) | 163 to 169 °C |
| FC(=C(F)C(F)(F)F)C(F)(F)F | -129 °C |
| CCC1(CCC(C)C)C(=O)NC(=O)NC1=O | 156 °C |
| CC1(C)C(C=CC(=O)OC(C(F)(F)F)C(F)(F)F)C1C(=O)OC(C#N)c1cccc(Oc2ccccc2)c1 (stereo not drawn) | 81.5 °C |
| COC1=CC(=O)OC(C=Cc2ccccc2)C1 (stereo not drawn) | 106 °C |
| c1cc(OCC2CO2)cc(OCC2CO2)c1 (stereo not drawn) | 42.5 °C |
| O=C(O)CCCCCCCCCCCO | 86.5 °C |

Source: a melting point compilation (Tetko et al.)
